Each compound was assayed on Erysiphe graminis (assay: Test for preventive effect on wheat powdery mildew). Settings: wheat seedlings (Norin-61-go), two-leaf stage, 500 ppm active ingredient, wettable powder, total diseased area of first leaves 10 days after inoculation.
Format: in vivo
Protocol: 10 Wheat seeds (variety: Norin-61-go) were sown in each plastic pot having a diameter of 6 cm, and grown in a greenhouse. Wheat seedlings which reached a two-leaf stage were treated with 10 ml per pot of aqueous solutions of wettable powders prepared in accordance with Formulation Example 2, at a concentration of 500 ppm in terms of the active ingredients, and dried in the air. Then, the seedlings were inoculated with Erysiphe graminis spore and controlled in a greenhouse. 10 Days after the inoculation, the total diseased area of the first leaves in each pot was observed and evaluated on the basis of the standards shown in Table 21.

Row | Compound | Evaluation
1 | COC(=O)NCc1cc(C(C)=NOCc2ccccc2)ccc1Cl (single isomer, unassigned) [A-80] | A (No diseased area)
2 | COC(=O)NCc1cc(C(C)=NOCc2ccccc2Cl)ccc1Cl (single isomer, unassigned) [A-84] | A (No diseased area)
3 | COC(=O)NCc1cc(C(C)=NOCc2ccc(Cl)cc2)ccc1Cl (single isomer, unassigned) [A-86] | A (No diseased area)
4 | C=CCON=C(C)c1cccc(CNC(=O)OC)c1 [A-37] | A (No diseased area)
5 | COC(=O)NCc1cccc(C(C)=NOCc2ccccc2)c1 [A-38] | A (No diseased area)
6 | CCON=C(C)c1cccc(CNC(=O)OC)c1 [A-39] | A (No diseased area)
7 | CON=C(C)c1cccc(CNC(=O)OC)c1 [A-40, Methyl N-[3-(1-methoxyiminoethyl)benzyl]carbamate] | A (No diseased area)
8 | C=CCON=C(c1ccccc1)c1cccc(CNC(=O)OC)c1 [A-41] | B (Diseased area of less than 5%)
9 | CON=C(c1ccccc1)c1cccc(CNC(=O)OC)c1 [A-42] | A (No diseased area)
10 | CCON=C(c1ccccc1)c1cccc(CNC(=O)OC)c1 [A-43] | A (No diseased area)
11 | CON=C(C)c1ccc(Cl)c(CNC(=O)OC)c1 [A-46] | A (No diseased area)
12 | CCON=C(C)c1ccc(Cl)c(CNC(=O)OC)c1 [A-49] | A (No diseased area)
13 | CCCON=C(C)c1ccc(Cl)c(CNC(=O)OC)c1 [A-50] | A (No diseased area)
14 | COC(=O)NCc1cc(C(C)=NOC(C)(C)C)ccc1Cl [A-55] | A (No diseased area)
15 | COC(=O)NCc1cc(C(C)=NOCc2cccc(C(F)(F)F)c2)ccc1Cl [A-100] | A (No diseased area)
16 | COC(=O)NCc1cc(C(C)=NOCc2ccc(C(F)(F)F)cc2)ccc1Cl [A-101] | A (No diseased area)

The compounds below were run on Septoria nodorum (assay: Test for preventive effect on Septoria leaf blotch of wheat). Settings: wheat seedlings (Norin-61-go), two-leaf stage, 50 ppm active ingredient, 10 ml per pot, evaluated 10 days after inoculation with Septoria nodorum.
Format: in vivo
Description: [table] 10 Wheat seeds (variety: Norin-61-go) were sown in each plastic pot having a diameter of 6 cm, and grown in a greenhouse. […] Then, the seedlings were inoculated with Septoria nodorum […] controlled in a greenhouse. 10 Days after the inoculation, the total diseased area of the first leaves in each pot was observed and evaluated on the basis of the standards shown in Table 21.

Row | Compound | Evaluation (total diseased area of the first leaves)
17 | COC(=O)NCc1cc(C(C)=NOCc2ccccc2)ccc1Cl (single isomer, unassigned) [A-80] | A (No diseased area)
18 | COC(=O)NCc1cc(C(C)=NOCc2ccccc2[N+](=O)[O-])ccc1Cl [A-414] | A (No diseased area)
19 | COC(=O)NCc1cc(C(C)=NOCc2cccs2)ccc1Cl [A-415] | A (No diseased area)
20 | COC(=O)NCc1cc(C(C)=NOCc2cscn2)ccc1Cl [A-416] | A (No diseased area)
21 | COC(=O)NCc1cc(C(C)=NOCc2cccc(OC)n2)ccc1Cl [A-417] | A (No diseased area)
22 | CCOc1cccc(CON=C(C)c2ccc(Cl)c(CNC(=O)OC)c2)n1 [A-418] | A (No diseased area)
23 | COC(=O)NCc1cc(C(C)=NOCc2cccc(C#N)c2)ccc1F [A-428] | A (No diseased area)
24 | COC(=O)NCc1cc(C(C)=NOCc2cccc(C)n2)ccc1F [A-430] | A (No diseased area)
25 | COC(=O)NCc1cc(C(C)=NOCc2ccc3ccccc3n2)ccc1Cl [A-431] | A (No diseased area)
26 | COC(=O)NCc1cc(C(C)=NOCc2nc(C(F)(F)F)cs2)ccc1Cl [A-432] | A (No diseased area)
27 | COC(=O)NCc1cc(C(C)=NOCc2cccc(C)[n+]2[O-])ccc1Cl [A-433] | B (Diseased area of less than 5%)
28 | COC(=O)NCc1cc(C=NOCc2ccc(Cl)cc2)ccc1Cl [A-438] | B (Diseased area of less than 5%)
29 | COC(=O)NCc1cc(C(C)=NOCc2ccc3ccccc3n2)ccc1F [A-440] | B (Diseased area of less than 5%)
30 | COC(=O)NCc1cc(C(C)=NOCC2CCCO2)ccc1Cl (stereo not shown) [A-443] | B (Diseased area of less than 5%)
31 | COC(=O)NCc1cc(C(C)=NOC2C=CC(C(Cl)(Cl)Cl)C2)ccc1Cl (stereo not shown) [A-444] | B (Diseased area of less than 5%)

— patent US6812229B1, “Carbamate derivative and agricultural/horticultural fungicide” (Kumiai Chemical Industry Co., Ltd., priority 1999, dated 2004)
